The values below are quoted from earlier work in patent publication US10300101B2, “Methods and compositions for enhancing or maintaining fertility” (Quality IP Holdings, LLC, priority 2012, dated 2019).

The test system of series [1] is hGH levels.
The subject of series [2] is hGH levels. Particulars: subcutaneous injection of 0.06 IU in hGH deficient subjects.

For `N=C(N)NCCC[C@H](N)C(=O)O` [arginine], the “elevation of serum hGH levels” value in the series on hGH levels [1] (30 g intravenous, in males) is on record as 8.6 fold. Besides, the “increase in hGH levels” value with hGH levels [1] (intravenous infusion of 183 mg/kg body weight in females) is on record as over 20 fold. Take “hGH: human growth hormone given by subcutaneous injection to hGH deficient subjects”: in the series on hGH levels [2], the “mean levels of hGH reached” value is 0.4 ng/mL.
